Test results reported in article PMC9576799, “Discovery of small molecule inhibitors that effectively disrupt IQGAP1-Cdc42 interaction in breast cancer cells” (Scientific Reports, 2022).
Values after ≈ are worked out from the molar mass of the structure shown. Like-named read-outs stand apart in the source and are kept apart here. Blank lines part the entries; values can stand above or below the molecule they belong to.

Tests used:
MDA-MB-231 cells = assay: Scratch wound migration assay; type: cell-based, human; settings: for EC50 / cell migration maximum efficiency: scratch wound, 72 h; for EC50: read-out: cell migration EC50
Protocol: MDA-MB-231 cells were grown to confluence and plated into a 96-well clear plate (Sartorius 4379) at 30,000 cells/100 µL/well in DMEM supplemented with 5% FBS. Cells were incubated at 37 °C with 5% CO2 overnight. Even wounds were created using a 96-pin wound device (Sartorius 4493) following the manufacturer’s protocol. Medium was then aspirated, and the cells were washed once with PBS pH 7.4 before adding 100 µL/well of fresh growth medium. Then 100 µL/well of growth medium containing compounds at an 8-point 1:2 titration dispensed into the cell plate resulting a final highest concentration of 50 µM for each compound. 0.5% DMSO was used as control. All samples were plated in triplicate. The plate was placed into an Incucyte SX5 Live-cell imaging system and phase images were taken in 2-h intervals for 72 h using the scratch wound setting. Medium was aspirated and replaced with a fresh medium containing compounds or DMSO after 24 h. The images were analyzed, and the wound density curves generated by the Incucyte software 2020A using the scratch wound analysis option.

[1] = biological target: T1, endogenous IQGAP1/Cdc42 interaction (Homo sapiens, UniProt P46940+P60953); assay: Immunoprecipitation of endogenous IQGAP1 and co-precipitated Cdc42 in HEK293 cell lysates; type: binding; settings: DMSO = 100% binding
T1 construct: endogenous in cells; host or cells: HEK293 cell lysate
Protocol: Each compound was added to lysates from HEK293 cells at a final concentration of 50 µM and endogenous IQGAP1 was immunoprecipitated. DMSO alone was used as the negative control (100% binding).
HEK293 cells were plated in 10-cm dishes to reach 80% confluence. The following day, the cells were washed with ice-cold phosphate-buffered saline (PBS) and lysed with 500 µl of Buffer A (50 mM Tris–HCl, pH 7.4, 150 mM NaCl, and 1% Triton X-100) supplemented with complete protease and phosphatase inhibitors (Roche, Mannheim, Germany). Lysates were subjected to two rounds of sonication for 10 s each, and insoluble material was precipitated by centrifugation at 13,000 xg for 10 min at 4 °C. Supernatants were precleared with protein A-Sepharose beads for 1 h. DMSO (vehicle) or different concentrations of the compounds (0.2, 0.6, 1, 5, 16 or 50 µM) were added to equal amounts of protein lysates for 30 min. Protein A-Sepharose beads and anti-IQGAP1 polyclonal antibodies were then added for 2 h at 4 °C. Anti-rabbit IgG antibodies were used as the immunoprecipitation control. Samples were washed five times with Buffer A, resolved by SDS-PAGE and transferred to polyvinylidene fluoride (PVDF) membranes (Millipore Corp). Membranes were probed with anti-IQGAP1 and anti-Cdc42 antibodies. After secondary antibody detection, Western blots were imaged using a LI-COR Odyssey infrared imaging system (LI-COR, USA). Western blot quantification and analysis was conducted using Image Studio™ Lite (LI-COR Biosciences).

[2] = pION µSOL kinetic aqueous solubility; type: physicochemical; settings: pION µSOL assay, pH 7.4; for solubility kinetic: aqueous medium
control MCF7 cells = assay: CellTiter-Glo cell viability assay, control MCF7; type: cell-based, human; settings: 72 h
Protocol: Selected hit compounds were tested in CellTiterGlo cell viability assays to determine their cytotoxic effect on IQGAP1 knockout and control MCF7 cells. Prior to the assay, we assessed cell proliferation to keep both cell lines at similar exponential growth rates within 80 h after plating. For this purpose, the cells were plated onto 384-well clear bottom black plates (Perkin Elmer, Ultra) at various cell densities (between 625 and 10,000 cells/50µL/well), spun down for 15 s, and placed into Incucyte SX5 (Essen BioScience) for automated bright-field channel reading every 4 h. […] For the cytotoxicity assays, cells were harvested with 0.05% trypsin, spun down at 125xg for 5 min, re-suspended in fresh DMEM supplemented with 5% (v/v) FBS, and seeded into 1536-well white solid bottom tissue culture-treated plates (Greiner One, #789173-F) at 600 cells/5µL/well for knockout cells and 300 cells/5µL/well for control cells using a Multidrop Combi dispenser (Thermo Fisher Scientific Inc.). One column on each plate was dispensed with growth medium only (no cells) to gauge the maximal potential cytotoxic effect (IC100 control). The plates were kept in a tissue culture incubator at 37 °C with 5% CO2 for ~ 20 h for attachment and recovery of the cells. The next day, selected compounds were pin-transferred into the wells in columns 5–48, 23nL/well at 7-point 1:3 serial dilution, in the range of 46 µM to 78 nM final assay concentration. DMSO was used as the vehicle control (IC0). The plates were covered with stainless steel cell culture Kalypsys lids and incubated at 37 °C with 5% CO2 under 95% humidity for 72 h.
Plates and reagents were equilibrated to room temperature and then 5 µL/well of CellTiter Glo (Promega, #G7570) reagent was dispensed with a Multidrop Combi dispenser to the assay plates. After incubation for 10 min at ambient temperature, the luminescence signal was read with a ViewLux instrument (Perkin Elmer) with one second exposure. Relative luminescent units (RLU) for each well were normalized to the median RLUs from DMSO control wells as […] and “no cells” control wells as 100% viability.

His-tagged GST = biological target: T2, His-tagged GST (Schistosoma japonicum, UniProt P08515); assay: HTRF counter-screen with His-GST; settings: 100 nM His-GST
T2 construct: purchased Millipore #12-523
Protocol: Two different HTRF counter-screens were used to identify false positive hits. The two interacting proteins GST-IQGAP1-C and His-Cdc42-Q61L were replaced with His-tagged GST or Cdc42-Q61L containing GST at the N-terminus and His at the C-terminus (GST-Cdc42-Q61L-His).
The second counter-screen was performed with 100 nM His-tagged GST following the protocol described above.
Supplementary Table S2: Counter-screening HTRF protocol.
Step Parameter Value Description
1a Protein 4 µL 100 nM His-GST (final concentration), diluted in
1b Controls 4 µL Column 2: GST-IQGAP1-C protein only [1.5nM] final
Column 3: pre-mixed proteins (regular assay
2 Compounds 23 nL Selected compounds were pin-transferred from DMSO
HTRF α-His-XL (5 ng/µL, 3X working concentration) +
3 antibodies 2 µL α-GST-K (0.7 ng/µL 3X working concentration),
pre-mix mixed in binding buffer
4 Time 3 Incubation (ambient temperature)
5 Reagent 1 µL 2.8 M KF (7x)
6 Detector HTRF Envision plate reader (excitation: 340 nm, emission: […]

T2 sequence (P08515 whole entry): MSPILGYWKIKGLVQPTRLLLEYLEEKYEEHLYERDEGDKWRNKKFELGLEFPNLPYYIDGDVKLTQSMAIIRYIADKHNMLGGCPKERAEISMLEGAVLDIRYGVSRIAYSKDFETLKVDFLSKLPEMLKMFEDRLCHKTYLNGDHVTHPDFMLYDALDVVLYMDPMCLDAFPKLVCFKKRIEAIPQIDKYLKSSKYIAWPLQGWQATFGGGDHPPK
T1 sequence (P46940 2-1657 limits assumed): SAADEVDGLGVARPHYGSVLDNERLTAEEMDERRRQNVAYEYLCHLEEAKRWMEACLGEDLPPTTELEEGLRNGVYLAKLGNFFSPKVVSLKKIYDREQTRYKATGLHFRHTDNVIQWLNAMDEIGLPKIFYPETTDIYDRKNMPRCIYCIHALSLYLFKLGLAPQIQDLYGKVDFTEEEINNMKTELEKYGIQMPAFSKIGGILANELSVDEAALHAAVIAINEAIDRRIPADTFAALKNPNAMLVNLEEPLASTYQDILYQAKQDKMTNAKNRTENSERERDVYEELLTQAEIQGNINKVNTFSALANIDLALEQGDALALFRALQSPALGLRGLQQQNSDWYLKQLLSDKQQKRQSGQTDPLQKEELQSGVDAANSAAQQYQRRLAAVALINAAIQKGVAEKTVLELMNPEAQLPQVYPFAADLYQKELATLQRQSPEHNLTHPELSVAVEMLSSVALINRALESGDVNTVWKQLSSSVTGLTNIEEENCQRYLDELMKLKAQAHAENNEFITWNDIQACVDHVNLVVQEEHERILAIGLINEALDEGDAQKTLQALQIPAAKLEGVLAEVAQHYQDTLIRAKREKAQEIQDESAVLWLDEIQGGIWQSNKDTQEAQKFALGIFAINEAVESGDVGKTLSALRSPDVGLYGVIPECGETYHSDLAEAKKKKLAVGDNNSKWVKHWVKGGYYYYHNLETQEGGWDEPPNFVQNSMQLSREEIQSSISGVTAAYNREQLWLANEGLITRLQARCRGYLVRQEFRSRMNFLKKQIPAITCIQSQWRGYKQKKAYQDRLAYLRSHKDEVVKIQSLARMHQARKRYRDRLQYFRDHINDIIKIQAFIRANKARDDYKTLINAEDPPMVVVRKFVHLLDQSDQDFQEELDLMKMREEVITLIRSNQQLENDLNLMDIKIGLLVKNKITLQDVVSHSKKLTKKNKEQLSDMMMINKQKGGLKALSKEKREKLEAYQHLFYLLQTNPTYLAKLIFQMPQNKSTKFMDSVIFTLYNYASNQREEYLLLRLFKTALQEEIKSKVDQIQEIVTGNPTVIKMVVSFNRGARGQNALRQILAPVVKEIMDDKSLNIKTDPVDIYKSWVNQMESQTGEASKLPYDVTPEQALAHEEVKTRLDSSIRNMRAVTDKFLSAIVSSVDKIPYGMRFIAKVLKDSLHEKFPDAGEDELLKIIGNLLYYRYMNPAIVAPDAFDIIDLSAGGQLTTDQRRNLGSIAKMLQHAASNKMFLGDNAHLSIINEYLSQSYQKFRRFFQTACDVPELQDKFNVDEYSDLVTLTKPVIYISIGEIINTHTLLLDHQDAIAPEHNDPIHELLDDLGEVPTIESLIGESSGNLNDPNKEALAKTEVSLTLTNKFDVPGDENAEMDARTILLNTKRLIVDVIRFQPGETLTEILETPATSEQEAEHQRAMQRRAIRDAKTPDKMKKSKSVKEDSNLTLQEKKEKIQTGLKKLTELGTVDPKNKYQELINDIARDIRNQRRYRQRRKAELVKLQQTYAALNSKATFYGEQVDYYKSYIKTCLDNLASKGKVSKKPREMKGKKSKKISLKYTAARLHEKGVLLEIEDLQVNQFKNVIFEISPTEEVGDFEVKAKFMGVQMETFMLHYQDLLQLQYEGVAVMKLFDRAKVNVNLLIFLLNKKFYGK
T1 sequence (P60953 1-188 limits assumed): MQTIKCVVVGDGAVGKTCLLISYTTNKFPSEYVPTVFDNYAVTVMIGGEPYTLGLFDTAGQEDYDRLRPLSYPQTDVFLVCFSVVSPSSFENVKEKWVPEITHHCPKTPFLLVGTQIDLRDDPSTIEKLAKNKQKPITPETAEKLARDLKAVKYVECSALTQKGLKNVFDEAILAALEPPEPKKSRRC

- EC50 (MDA-MB-231 cells; Homo sapiens): 12.9 µM
- reduction of interaction between endogenous IQGAP1 and Cdc42 (mean) ([1]; 0.2 µM (Fig. 3b)): 47%
- solubility kinetic [2]: < 1 µg/mL
Compound: CCc1ccccc1Nc1ncnc2c1cnn2-c1ccc(Cl)cc1 [NCGC00138812]
- cell migration maximum efficiency (MDA-MB-231 cells): 20%

Compound: Cc1cccc(NC(=O)c2c(NC(=O)C(F)(F)F)sc3c2CCCCC3)c1 [NCGC00098561]
- IC50 (control MCF7 cells; Homo sapiens, read-out: cytotoxicity EC50): 2.24 µM
- Emax (control MCF7 cells; Homo sapiens, read-out: cytotoxicity efficacy): ~100%
- activity in His-GST counter-screen (His-tagged GST): not active

- reduction of interaction between endogenous IQGAP1 and Cdc42 (mean) ([1]; 16 µM (Fig. 3b)): 60%
- solubility kinetic [2]: 37.1 µg/mL (≈ 88 µM)
Compound: CCN1CCN(c2ncc3c(n2)CCN(Cc2cc(Br)cs2)C3)CC1 [NCGC00131308]
- inhibition at 50 µM (MDA-MB-231 cells; Homo sapiens, 50 μM, the highest concentration used, read-out: inhibition of cell migration): 57.7 ± 7.2%

- activity in His-GST counter-screen (His-tagged GST): inactive
- EC50 (MDA-MB-231 cells): 2.7 µM
- Solubility (kinetic aqueous) [2]: < 1 µg/mL
Compound: CCN(CC)CCn1c2ccccc2c2nc3ccc([N+](=O)[O-])cc3cc21 [MLS000332963]
- cytotoxicity efficacy (control MCF7 cells): 47%
- EC50 (control MCF7 cells; read-out: cytotoxicity EC50): 19.9 µM
- effect on cell shape (MDA-MB-231 cells; 50 µM (Fig. S3)): flatter and spread out more on the plastic
- cell migration maximum efficiency (MDA-MB-231 cells): 39%
